Experiment [1] has as its system K562 cells. In words: MTT assay of cell growth and survival, K562 cells. Format: cell-based, human. The settings on record: FIG. 21; anti-tumor activity. The method, then: All compounds are tested for purity (HPLC, NMR) and the calculated molecular weight is used to make up a 10 mM stock solution of each compound (in 100% dimethylsulfoxide or 50% dimethylsulfoxide:50% polyethylene glycol 300). Compounds are diluted into cell culture media consisting of RPMI 1640 with 10% fetal bovine serum to a final starting concentration of 10 μM. [Highest final DMSO content=0.1%.]. Tumor cells (20,000 for non-adherent cells; 5,000 for adherent cells) are plated into individual wells of a 96-well culture plate in 0.1 ml of culture media. Diluted compounds are added to individual wells containing pre-plated cells (final volume 0.2 ml) and incubated at 37° C. for 24 to 72 h. Wells receiving vehicle alone acted as a control.
MTT (viability) assay. MTT reagent (20 μl of 5 mg/ml stock solution, Sigma) is added to the cells and the plates are incubated at 37° C. for another 2 h. Cells are lysed by adding 100 μl of lysis buffer (20% SDS in 50% N,N-dimethylformamide (Sigma) adjusted to pH 4.7 by 80% acetic acid and 1 M HCl such that the final concentration of acetic acid is 2.5% and HCl is 2.5%) into each well and incubated for 6 h. The OD570 of each sample is determined by using a SPECTRA MAX M2 plate reader (Molecular Devices). The OD in control and treated wells is used as an estimate of the effect of compounds on cell growth and survival.
Cell lines. […]
(In general: Tetrazolium assays rely on reduction of a dye to a coloured formazan, in cell work by metabolically active cells.)

The target in experiment [2] is T1, HA-tagged c-myc (Homo sapiens, UniProt P01106).
T1 construct: labeled at the termini as 1 and 439; expressed in transfected cells; host or cells: HeLa
T1 sequence (P01106 16-454): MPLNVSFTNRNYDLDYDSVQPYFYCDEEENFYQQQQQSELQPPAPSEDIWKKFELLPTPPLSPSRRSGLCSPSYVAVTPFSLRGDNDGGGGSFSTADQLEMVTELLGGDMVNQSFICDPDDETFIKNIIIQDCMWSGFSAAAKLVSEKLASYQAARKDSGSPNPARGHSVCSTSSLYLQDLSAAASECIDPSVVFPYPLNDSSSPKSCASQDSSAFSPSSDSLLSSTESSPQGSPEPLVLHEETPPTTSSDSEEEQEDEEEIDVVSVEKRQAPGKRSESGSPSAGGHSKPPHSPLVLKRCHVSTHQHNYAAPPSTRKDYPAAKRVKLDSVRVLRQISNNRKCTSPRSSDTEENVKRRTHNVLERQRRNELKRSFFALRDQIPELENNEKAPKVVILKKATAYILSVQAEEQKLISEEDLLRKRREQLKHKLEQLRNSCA
Briefly: HA-tagged c-myc stability in transfected HeLa cells. The experiment is classed as cell-based. The note with it: 1 h treatment. As to the method: Bottom: Expression vectors for HA-tagged c-myc or HA-tagged IKKγ (tagged at the N-terminus) were transfected (at the DNA content indicated) into HeLa cells as described in the methods section above. Twenty-four h later, cells were treated with Degrasyn for 1 h before harvesting cells, extracting protein and subjecting equal protein lysates to immunoblotting for c-myc (left) or IKKγ (right) using an HA-directed antibody. Actin was immunoblotted as a control for protein loading. […] These cells and transfection system were used to map the domains important for Degrasyn mediated destabilization by deletion analysis (FIG. 20).
Analysis of wild-type and mutant (deleted) c-myc protein stability. A c-myc expression vector (pCGN-MYC) was obtained from Dr. William Tansey (Cold Springs Harbor, N.Y.) and initially used to transfect HeLa cancer cells (with the SN2 cationic lipid). In subsequent studies, the c-myc gene was subcloned downstream of the HA antigen in the pcDNA3.1 vector, allowing efficient detection of transfected c-myc by anti-HA immunoblotting. Multiple site-specific mutations and domain deletions were introduced into the c-myc gene using the Stratagene Quickchange II XL kit and specific dual primer sets. The deletions/mutations were verified by direct sequencing before use. […]

This note sets out measurements from patent US20100292229A1, “TRYPHOSTIN-ANALOGS FOR THE TREATMENT OF CELL PROLIFERATIVE DISEASES” (The Board of Regents of the University of Texas System, priority 2006, published 2010).

For `CCC[C@H](NC(=O)/C(C#N)=C/c1cccc(Br)n1)c1ccccc1` [Degrasyn], in experiment [1], the IC50 (usually the midpoint of a concentration-inhibition curve) was 2800 nM. For the same compound, the “HA-tagged c-myc and HA-tagged IKKγ levels” value in experiment [2] is on record as “reduced HA-tagged c-myc but did not affect HA-tagged IKKγ”.
